In patent US20090221549A1, “ANTIHYPERTENSIVE THERAPY” (Gilead Colorado, Inc., priority 2006, published 2009):

Assays:
[1] = test system: patients with resistant hypertension; assay: Trough/peak sitting blood pressure by standard sphygmomanometry, randomized placebo-controlled dose-titration study; format: in vivo, human; conditions: for Percent of patients achieving SBP goal, Responders, n (%): n = 76
Protocol: In this randomized, double-blind, placebo-controlled, dose-titration study, 115 patients with resistant hypertension as defined by JNC 7 guidelines were randomized 2:1 to receive escalating doses of darusentan (10, 50, 100, 150 and 300 mg) or placebo once daily for 10 weeks. Darusentan dose was increased every 2 weeks.
Patients (35 to 85 years of age) with resistant hypertension as defined by the JNC 7 guidelines and who were treated with and adhered to full doses of JNC 7 recommended antihypertensives, including a diuretic and two or more antihypertensive medications from different drug classes, defined as (a) ACE inhibitors and angiotensin II receptor blockers, (b) beta-adrenergic receptor blockers, and (c) calcium channel blockers, were eligible to participate in the study. Patients also were required to have an estimated glomerular filtration rate (GFR) ≧30 mL/min/1.73 m^2 during the screening period. Women of childbearing potential were required to have a negative serum pregnancy test at the screening visit and a negative urine pregnancy test at baseline, and they must have agreed to use a reliable double-barrier method of contraception throughout the study and for at least 4 weeks after the last study visit. Patients with an average sitting SBP ≧180 mmHg, […], hemoglobin A1c >10%, hemoglobin concentration <10 g/dL, hematocrit <30%, serum thyroid stimulating hormone concentration >1.5× the upper limit of normal (ULN), or serum alanine aminotransferase (ALT) or aspartate aminotransferase (AST)>2×ULN during the screening period were excluded from the study. […] All patients provided written informed consent.
(§1) In this randomized, double-blind, placebo-controlled, dose-titration study, patients were randomized 2:1 to receive escalating doses of darusentan or placebo once daily in the morning for 10 weeks after completing a 2-week placebo run-in period (FIG. 1). Darusentan was initiated at a dose of 10 mg/day and escalated every 2 weeks at doses of 50, 100 and 150 mg/day until reaching a maximum of 300 mg/day. […] Patients were withdrawn from the study if a subsequent dose reduction was required. After completion of the 10-week treatment period, patients were withdrawn from study medication over a maximum of 2 weeks. This study was approved by an Institutional Review Board/Independent Ethics Committee and conducted in accordance with the principles of Good Clinical Practices and the revised Declaration of Helsinki.
(§2) Co-primary efficacy endpoints were the changes from baseline through weeks 8 and 10 (i.e., doses of 150 and 300 mg) in trough sitting SBP. Blood pressure was measured at every study visit (baseline and weeks 2, 4, 6, 8 and 10) using standard sphygmomanometry. Secondary variables included 24-hour SBP as measured by ambulatory blood pressure monitoring (ABPM), percentage of patients who achieved SBP goal, trough sitting DBP, and urinary albumin to creatinine ratio. Ambulatory blood pressure monitoring was recorded once before randomization and repeated during the 24 hours immediately preceding the week 10 study visit. Urine samples for determination of albumin to creatinine ratio were collected at screening, baseline and week 10.
A nonlinear mixed effect model was used for the analysis of change in blood pressure, with comorbidity status as a covariate. This model used all observed blood pressure measurements with no imputation for missing values. Linear contrast statements were used to test the slope through a given time point to test the effect of the dose administered on that week. Estimates of treatment effect were obtained via least square means. Response rates were compared with logistic regression models at each blood pressure measurement with comorbidity status as a covariate; missing values were imputed with last observation carried forward for these models. Safety summaries include all patients who received ≧1 dose of blinded study medication. […]

[2] = test system: patients with resistant hypertension; assay: 24-hour ambulatory blood pressure monitoring (ABPM) at week 10; format: in vivo, human
Protocol: as §1, §2
A nonlinear mixed effect model was used for the analysis of change in blood pressure, with comorbidity status as a covariate. This model used all observed blood pressure measurements with no imputation for missing values. Linear contrast statements were used to test the slope through a given time point to test the effect of the dose administered on that week. Estimates of treatment effect were obtained via least square means. […]

[3] = test system: patients with moderate hypertension; conditions: 10 to 100 mg/day, no other antihypertensive drugs; cited from earlier work
[4] = test system: patients with resistant hypertension; assay: Safety and tolerability assessments in the clinical study; format: in vivo, human; conditions: for Treatment-emergent adverse events, Patients, %: n = 76
Protocol: as §1
Physical examinations, vital sign measurements, clinical chemistry and hematologic laboratory tests, and electrocardiography were performed at the screening visit and periodically throughout the study. Blood samples were obtained at baseline and at weeks 4 and 10 during study drug treatment to monitor liver function. Additional blood samples were drawn from male patients at baseline and week 10 to assess follicle stimulating hormone, inhibin B, luteinizing hormone and testosterone levels. Male fertility was assessed by analysis of semen samples obtained within 2 weeks before baseline and within 2 weeks before week 10. Adverse events were monitored throughout the study.
A nonlinear mixed effect model was used for the analysis of change in blood pressure, with comorbidity status as a covariate. This model used all observed blood pressure measurements with no imputation for missing values. Linear contrast statements were used to test the slope through a given time point to test the effect of the dose administered on that week. Estimates of treatment effect were obtained via least square means. Response rates were compared with logistic regression models at each blood pressure measurement with comorbidity status as a covariate; missing values were imputed with last observation carried forward for these models. Safety summaries include all patients who received ≧1 dose of blinded study medication.

[5] = test system: patients with resistant hypertension; assay: Urinary albumin to creatinine ratio (renal function); format: in vivo, human; conditions: for Albumin to creatinine ratio, % Change from baseline, Mean: week 10
Protocol: as §2

COc1cc(OC)nc(O[C@H](C(=O)O)C(OC)(c2ccccc2)c2ccccc2)n1 [Darusentan, (+)-(S)-2-[(4,6-dimethoxy-2-pyrimidinyl)oxy]-3-methoxy-3,3-diphenylpropionic acid]
improvements in trough sitting SBP and DBP, dose relation ([1]; 10 to 300 mg once daily, titrated every 2 weeks): dose dependent | Percent of patients achieving SBP goal, Responders, n (%) ([1]; Week 2 (10 mg)): 23 (30.3) n (%) | Percent of patients achieving SBP goal, Responders, n (%) ([1]; Week 4 (50 mg)): 36 (47.4) n (%) | Percent of patients achieving SBP goal, Responders, n (%) ([1]; Week 6 (100 mg)): 34 (44.7) n (%) | Percent of patients achieving SBP goal, Responders, n (%) ([1]; Week 8 (150 mg)): 32 (42.1) n (%) | Percent of patients achieving SBP goal, Responders, n (%) ([1]; Week 10 (300 mg)): 37 (48.7) n (%) | patients achieving SBP goal (JNC 7) ([1]; end of treatment (week 10), placebo 28%): 49% | placebo-adjusted reduction in mean 24-hour systolic ABP ([2]; 300 mg): 9.2±2.2 mmHg | decrease in day-time SBP (ABP) ([2]; placebo 2.2±2.4 mmHg): 10.9±1.4 mmHg | decrease in night-time SBP (ABP) ([2]; placebo 3.8±2.7 mmHg): 11.9±1.6 mmHg | effect on SBP and DBP by comparison with placebo [3]: significantly reduce | patients with elevations in ALT or AST >2×ULN ([4]; 10-week treatment): no | Treatment-emergent adverse events, Patients, % ([4]; Arthralgia): (3) % | Treatment-emergent adverse events, Patients, % ([4]; Diarrhea): (1) % | Treatment-emergent adverse events, Patients, % ([4]; Dizziness): (7) % | Treatment-emergent adverse events, Patients, % ([4]; Gastroenteritis): (5) % | Treatment-emergent adverse events, Patients, % ([4]; Nasopharyngitis): (7) % | Treatment-emergent adverse events, Patients, % ([4]; Sinusitis): (8) % | Treatment-emergent adverse events, Patients, % ([4]; Upper respiratory tract infection): (5) % | patients with decrease in hematocrit reported as adverse event ([4]; all events mild): 2 patients | patients with decrease in hemoglobin reported as adverse event ([4]; all events mild): 2 patients | cases of severe peripheral edema ([4]; darusentan group): one case | serious adverse events considered related to study medication ([4]; darusentan group): None and no drug-related serious adverse events | Geometric mean albumin to creatinine ratio, Week 10 ([5]; All observed patients, n 65, baseline 12.6): 9.4 mg/g | Albumin to creatinine ratio, % Change from baseline, Mean ([5]; All observed patients): −25.3% | Geometric mean albumin to creatinine ratio, Week 10 ([5]; Baseline ratio >30 mg/g, n 12, baseline 145.4): 73.6 mg/g | Albumin to creatinine ratio, % Change from baseline, Mean ([5]; Baseline ratio >30 mg/g): −49.4% | Geometric mean albumin to creatinine ratio, Week 10 ([5]; Baseline ratio ≦30 mg/g, n 53, baseline 7.2): 5.9 mg/g | Albumin to creatinine ratio, % Change from baseline, Mean ([5]; Baseline ratio ≦30 mg/g): −18.4%
